Source: patent US20230398130A1, “METHODS AND COMPOSITIONS FOR DIFFERENTIATING STEM CELLS” (Massachusetts Institute of Technology, priority 2020, published 2023)
Counter-ions that a name gives are not always drawn.

What was measured:
ISC-enriched organoids [1] = test: Primary screen, 384-well 2.5-D organoid differentiation (ENR+CD, 6 days, Target Selective Inhibitor Library, vs whole-plate median): ATP (CellTiter-Glo 3D, CTG); settings: for Dose.FC.CTG: FC vs plate median; for SSMD.CTG: strictly standardized mean difference
ISC-enriched organoids [2] = test: Primary screen, 384-well 2.5-D organoid differentiation (ENR+CD, 6 days): carbachol-induced lysozyme secretion (LYZ.S); format: cell-based, murine; settings: primary screen; for Dose.FC.LYZ.S: FC vs plate median; for Z.LYZ.S: standard z score; for SSMD.LYZ.S: strictly standardized mean difference
Text: (§1) High-throughput screening.

ISC-enriched organoids [3] = test: Primary screen, 384-well 2.5-D organoid differentiation (ENR+CD, 6 days): basal lysozyme secretion (LYZ.NS); format: cell-based, murine; settings: for Dose.FC.LYZ.NS: FC vs plate median; for SSMD.LYZ.NS: strictly standardized mean difference
Text: as §1

[4] = Dose 0.08 uM, standard z score of FC
[5] = Dose 0.40 uM, standard z score of FC
[6] = Dose 2.00 uM, standard z score of FC
[7] = Dose 10.00 uM, standard z score of FC
[8] = primary screen, 1st of the 4 dose lines of the treatment (dose not given)
[9] = primary screen, 2nd of the 4 dose lines of the treatment (dose not given)
[10] = primary screen, 3rd of the 4 dose lines of the treatment (dose not given)
[11] = primary screen, 4th of the 4 dose lines of the treatment (dose not given)
[12] = 1st of the 4 dose lines of the treatment (dose not given)
[13] = 2nd of the 4 dose lines of the treatment (dose not given)
[14] = 3rd of the 4 dose lines of the treatment (dose not given)
[15] = 4th of the 4 dose lines of the treatment (dose not given)
[16] = Dose 0.08 uM, primary screen, standard z score
[17] = Dose 0.40 uM, primary screen, standard z score
[18] = Dose 2.00 uM, primary screen, standard z score
[19] = Dose 10.00 uM, primary screen, standard z score

Row | SMILES | Dose.FC.CTG (ISC-enriched organoids [1]; Dose 0.08 uM, primary screen) [log 2 fold change] | Z.CTG (ISC-enriched organoids [1]; [4]) | Dose.FC.CTG (ISC-enriched organoids [1]; Dose 0.40 uM, primary screen) [log 2 fold change] | Z.CTG (ISC-enriched organoids [1]; [7]) | SSMD.CTG (ISC-enriched organoids [1]; [8]) | SSMD.CTG (ISC-enriched organoids [1]; [9]) | SSMD.CTG (ISC-enriched organoids [1]; [10]) | SSMD.CTG (ISC-enriched organoids [1]; [11]) | Z.LYZ.S (ISC-enriched organoids [2]; [12]) | Z.LYZ.S (ISC-enriched organoids [2]; [13]) | Z.LYZ.S (ISC-enriched organoids [2]; [14]) | Z.LYZ.S (ISC-enriched organoids [2]; [15]) | SSMD.LYZ.S (ISC-enriched organoids [2]; [12]) | SSMD.LYZ.S (ISC-enriched organoids [2]; [13]) | SSMD.LYZ.S (ISC-enriched organoids [2]; [14]) | SSMD.LYZ.S (ISC-enriched organoids [2]; [15]) | SSMD.LYZ.NS (ISC-enriched organoids [3]; [8]) | SSMD.LYZ.NS (ISC-enriched organoids [3]; [9]) | SSMD.LYZ.NS (ISC-enriched organoids [3]; [10]) | SSMD.LYZ.NS (ISC-enriched organoids [3]; [11]) | other results
1 | CCC(CC)(NC(=O)C(C)C)C(=O)N[C@@H](CCCN=C(N)N)C(=O)NC1(C(=O)NC(c2ccc(F)cc2)c2ccc(F)cc2)CCCC1 [MM-102] | −0.205 | −0.489 | −0.132 | −0.964 | −0.485 | −0.493 | −0.877 | −1.350 | −0.177 | −0.009 | −0.226 | −1.252 | −0.148 | −0.010 | −0.218 | −0.881 | −0.233 | −0.084 | 0.128 | −0.792 | Z.CTG (ISC-enriched organoids [1]; [5]): −0.315; Dose.FC.CTG (ISC-enriched organoids [1]; Dose 2.00 uM, primary screen): −0.233 log 2 fold change; Z.CTG (ISC-enriched organoids [1]; [6]): −0.557; Dose.FC.CTG (ISC-enriched organoids [1]; Dose 10.00 uM, primary screen): −0.403 log 2 fold change; Dose.FC.LYZ.S (ISC-enriched organoids [2]; Dose 0.08 uM): −0.027 log 2 fold change; Dose.FC.LYZ.S (ISC-enriched organoids [2]; Dose 0.40 uM): −0.001 log 2 fold change; Dose.FC.LYZ.S (ISC-enriched organoids [2]; Dose 2.00 uM): −0.035 log 2 fold change; Dose.FC.LYZ.S (ISC-enriched organoids [2]; Dose 10.00 uM): −0.194 log 2 fold change; Dose.FC.LYZ.NS (ISC-enriched organoids [3]; Dose 0.08 uM, primary screen): −0.025 log 2 fold change; Z.LYZ.NS (ISC-enriched organoids [3]; [4]): −0.220; Dose.FC.LYZ.NS (ISC-enriched organoids [3]; Dose 0.40 uM, primary screen): −0.010 log 2 fold change; Z.LYZ.NS (ISC-enriched organoids [3]; [5]): −0.090; Dose.FC.LYZ.NS (ISC-enriched organoids [3]; Dose 2.00 uM, primary screen): 0.026 log 2 fold change; Z.LYZ.NS (ISC-enriched organoids [3]; [6]): 0.230; Dose.FC.LYZ.NS (ISC-enriched organoids [3]; Dose 10.00 uM, primary screen): −0.164 log 2 fold change; Z.LYZ.NS (ISC-enriched organoids [3]; [7]): −1.424
2 | S=C=Nc1cccc(NC(=S)NCCCCNC(=S)Nc2cccc(N=C=S)c2)c1 [MRS 2578] | −0.142 | −0.339 | 0.061 | −0.544 | – | – | – | – | – | – | – | – | – | – | – | – | – | – | – | – | Z.CTG (ISC-enriched organoids [1]; [5]): 0.146; Dose.FC.CTG (ISC-enriched organoids [1]; Dose 2.00 uM, primary screen): −0.159 log 2 fold change; Z.CTG (ISC-enriched organoids [1]; [6]): −0.381; Dose.FC.CTG (ISC-enriched organoids [1]; Dose 10.00 uM, primary screen): −0.228 log 2 fold change; Dose.FC.LYZ.S (ISC-enriched organoids [2]; Dose 0.08 uM): 0.095 log 2 fold change; Dose.FC.LYZ.S (ISC-enriched organoids [2]; Dose 0.40 uM): 0.067 log 2 fold change; Dose.FC.LYZ.S (ISC-enriched organoids [2]; Dose 2.00 uM): 0.023 log 2 fold change; Dose.FC.LYZ.S (ISC-enriched organoids [2]; Dose 10.00 uM): 0.013 log 2 fold change; Dose.FC.LYZ.NS (ISC-enriched organoids [3]; Dose 0.08 uM, primary screen): 0.116 log 2 fold change; Z.LYZ.NS (ISC-enriched organoids [3]; [4]): 1.011; Dose.FC.LYZ.NS (ISC-enriched organoids [3]; Dose 0.40 uM, primary screen): 0.036 log 2 fold change; Z.LYZ.NS (ISC-enriched organoids [3]; [5]): 0.311; Dose.FC.LYZ.NS (ISC-enriched organoids [3]; Dose 2.00 uM, primary screen): 0.031 log 2 fold change; Z.LYZ.NS (ISC-enriched organoids [3]; [6]): 0.270; Dose.FC.LYZ.NS (ISC-enriched organoids [3]; Dose 10.00 uM, primary screen): 0.032 log 2 fold change; Z.LYZ.NS (ISC-enriched organoids [3]; [7]): 0.276
3 | COc1cc(-n2c(=S)[nH]c3ccccc3c2=O)c(Cl)cc1Cl [Mdivi-1] | 0.008 | – | −0.031 | – | 0.026 | −0.072 | −0.356 | −1.838 | 0.511 | 0.196 | −0.310 | −2.655 | 0.520 | 0.152 | −0.196 | −2.328 | 0.715 | 0.481 | −0.093 | −1.749 | Z.CTG (ISC-enriched organoids [1]; [16]): 0.019; Z.CTG (ISC-enriched organoids [1]; [17]): −0.074; Dose.FC.CTG (ISC-enriched organoids [1]; Dose 2.00 uM, primary screen): −0.112 log 2 fold change; Z.CTG (ISC-enriched organoids [1]; [18]): −0.267; Dose.FC.CTG (ISC-enriched organoids [1]; Dose 10.00 uM, primary screen): −0.527 log 2 fold change; Z.CTG (ISC-enriched organoids [1]; [19]): −1.259; Dose.FC.LYZ.S (ISC-enriched organoids [2]; Dose 0.08 uM): 0.079 log 2 fold change; Dose.FC.LYZ.S (ISC-enriched organoids [2]; Dose 0.40 uM): 0.030 log 2 fold change; Dose.FC.LYZ.S (ISC-enriched organoids [2]; Dose 2.00 uM): −0.048 log 2 fold change; Dose.FC.LYZ.S (ISC-enriched organoids [2]; Dose 10.00 uM): −0.411 log 2 fold change; Dose.FC.LYZ.NS (ISC-enriched organoids [3]; Dose 0.08 uM, primary screen): 0.177 log 2 fold change; Z.LYZ.NS (ISC-enriched organoids [3]; [16]): 1.537; Dose.FC.LYZ.NS (ISC-enriched organoids [3]; Dose 0.40 uM, primary screen): 0.156 log 2 fold change; Z.LYZ.NS (ISC-enriched organoids [3]; [17]): 1.358; Dose.FC.LYZ.NS (ISC-enriched organoids [3]; Dose 2.00 uM, primary screen): −0.022 log 2 fold change; Z.LYZ.NS (ISC-enriched organoids [3]; [18]): −0.194; Dose.FC.LYZ.NS (ISC-enriched organoids [3]; Dose 10.00 uM, primary screen): −0.268 log 2 fold change; Z.LYZ.NS (ISC-enriched organoids [3]; [19]): −2.333
4 | CC12CC3CC(C)(C1)CC(N)(C3)C2 [Memantine HCl] | – | – | – | – | 0.214 | 0.219 | −0.016 | 0.145 | 0.586 | 0.112 | 0.328 | −0.138 | 0.420 | 0.134 | 0.292 | −0.142 | 0.489 | 0.038 | 0.745 | −0.407 | Z.CTG (ISC-enriched organoids [1]; [16]): 0.199; Z.CTG (ISC-enriched organoids [1]; [17]): 0.173; Z.CTG (ISC-enriched organoids [1]; [18]): −0.018; Z.CTG (ISC-enriched organoids [1]; [19]): 0.184
5 | CN(Cc1cnc2nc(N)nc(N)c2n1)c1ccc(C(=O)N[C@@H](CCC(=O)O)C(=O)O)cc1 [Methotrexate] | – | – | – | −1.534 | −1.489 | −1.028 | −1.982 | −1.176 | −1.029 | −0.831 | −1.143 | −1.007 | −0.943 | −0.627 | −0.866 | −0.718 | −0.745 | −0.349 | −1.130 | −0.527 | Z.CTG (ISC-enriched organoids [1]; [16]): −1.469; Z.CTG (ISC-enriched organoids [1]; [17]): −1.724; Z.CTG (ISC-enriched organoids [1]; [18]): −1.674
6 | Nc1nc(CC(=O)Nc2ccc(CCNC[C@H](O)c3ccccc3)cc2)cs1 [Mirabegron] | – | 0.069 | – | −0.123 | 0.101 | −0.380 | 0.068 | −0.150 | 0.958 | −0.103 | −0.317 | −0.065 | 0.863 | −0.090 | −0.363 | −0.064 | 1.039 | −0.280 | −0.346 | 0.113 | Z.CTG (ISC-enriched organoids [1]; [5]): −0.801; Z.CTG (ISC-enriched organoids [1]; [6]): 0.046
